≈ marks a conversion by molar mass, not a printed value. Like-named read-outs stand apart in the source and are kept apart here.
What was measured:
[1] = cited from earlier work
[2] = Solubility study of clozapine at various pH and solvent; assay type: physicochemical
[3] = pH 4.0 to 4.5 of Acetate buffer

Row | SMILES | solubility in water [1] | Solubility ([2]; 0.1N Hydrochloric acid) [µg/mL] | Solubility ([2]; Purified Water) [µg/mL] | Solubility [2, 3] [µg/mL] | Solubility ([2]; pH 6.8 of Phosphate buffer) [µg/mL] | Solubility ([2]; phosphate buffer, pH 6.8, aqueous buffer, thermodynamic from solid, pH 6.8 of Phosphate buffer, read-out: Solubility) [µg/mL] | Solubility ([2]; purified water, water, thermodynamic from solid, Purified Water, read-out: Solubility) [µg/mL]
1 | CN1CCN(C2=Nc3cc(Cl)ccc3Nc3ccccc32)CC1 [Clozapine, 8-chloro-11-(4-methyl-1-piperazinyl)-5H-dibenzo [b,e][1,4] diazepine] | very slightly soluble in water | – | – | – | – | – | –
2 | CN1CCN(C2=Nc3cc(Cl)ccc3Nc3ccccc32)CC1 [Micronized, Clozapine] | – | 28727 (≈ 87900 µM) | 31 (≈ 94.9 µM) | 4773 (≈ 14600 µM) | 121 (≈ 370 µM) | – | –
3 | CN1CCN(C2=Nc3cc(Cl)ccc3Nc3ccccc32)CC1 [Un-micronized, Clozapine] | – | 418 (≈ 1280 µM) | – | 730 (≈ 2230 µM) | – | 100 (≈ 306 µM) | 40 (≈ 122 µM)
